Results: paper PMC6270149, “Bioactive Flavone-C-Glycosides of the African Medicinal Plant Biophytum umbraculum” (Molecules, 2013)
Like-named read-outs stand apart in the source and are kept apart here.

Assays:
[1] = biological target: xanthine oxidase (XO) (Bos taurus, UniProt P80457); assay: Inhibition of xanthine oxidase (XO); format: biochemical; conditions: isolated compounds dissolved in DMSO; triplicates, mean ± SD
Method: (§1) Pure substances and crude extracts (Soxhlet) were dissolved in DMSO, and the assay was carried out as reported previously.

[2] = DPPH radical scavenging; conditions: triplicates, mean ± SD; for IC50: isolated compounds dissolved in DMSO
Method: Pure substances and crude extracts (Soxhlet) were dissolved in DMSO, and the assay was carried out as reported previously. Quercetin (Sigma-Aldrich) was used as positive control.

[3] = biological target: T1, 15-lipoxygenase (15-LO) (Glycine max, UniProt P08170); assay: Inhibition of 15-lipoxygenase (15-LO); format: biochemical; conditions: isolated compounds dissolved in DMSO, triplicates, mean ± SD
T1 sequence (P08170 1-839): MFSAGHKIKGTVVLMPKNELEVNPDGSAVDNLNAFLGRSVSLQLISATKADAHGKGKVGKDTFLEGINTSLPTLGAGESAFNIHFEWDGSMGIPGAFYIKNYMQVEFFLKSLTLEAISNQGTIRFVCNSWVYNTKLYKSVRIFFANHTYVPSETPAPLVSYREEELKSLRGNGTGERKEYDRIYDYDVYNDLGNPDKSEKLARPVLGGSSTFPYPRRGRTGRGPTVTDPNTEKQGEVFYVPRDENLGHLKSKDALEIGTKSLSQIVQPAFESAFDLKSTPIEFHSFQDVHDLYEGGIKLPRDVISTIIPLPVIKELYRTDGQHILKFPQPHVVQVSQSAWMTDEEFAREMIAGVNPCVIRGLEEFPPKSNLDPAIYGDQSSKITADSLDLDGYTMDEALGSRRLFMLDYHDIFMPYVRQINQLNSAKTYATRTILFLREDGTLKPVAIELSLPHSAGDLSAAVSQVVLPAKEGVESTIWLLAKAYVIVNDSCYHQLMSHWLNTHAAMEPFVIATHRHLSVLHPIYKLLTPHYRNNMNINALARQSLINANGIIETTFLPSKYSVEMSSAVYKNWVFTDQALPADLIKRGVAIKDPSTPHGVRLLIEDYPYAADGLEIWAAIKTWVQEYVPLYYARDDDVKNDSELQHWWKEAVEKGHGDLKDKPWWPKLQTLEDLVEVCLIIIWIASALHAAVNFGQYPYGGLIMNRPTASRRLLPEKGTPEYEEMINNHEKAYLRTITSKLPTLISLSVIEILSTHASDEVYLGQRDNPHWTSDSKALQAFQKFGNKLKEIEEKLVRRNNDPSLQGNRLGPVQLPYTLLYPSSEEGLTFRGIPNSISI
Method: as §1

[4] = read-out: 15-lipoxygenase (15-LO) inhibition IC50 ± SD

xanthine oxidase (XO), sequence (P80457 whole entry): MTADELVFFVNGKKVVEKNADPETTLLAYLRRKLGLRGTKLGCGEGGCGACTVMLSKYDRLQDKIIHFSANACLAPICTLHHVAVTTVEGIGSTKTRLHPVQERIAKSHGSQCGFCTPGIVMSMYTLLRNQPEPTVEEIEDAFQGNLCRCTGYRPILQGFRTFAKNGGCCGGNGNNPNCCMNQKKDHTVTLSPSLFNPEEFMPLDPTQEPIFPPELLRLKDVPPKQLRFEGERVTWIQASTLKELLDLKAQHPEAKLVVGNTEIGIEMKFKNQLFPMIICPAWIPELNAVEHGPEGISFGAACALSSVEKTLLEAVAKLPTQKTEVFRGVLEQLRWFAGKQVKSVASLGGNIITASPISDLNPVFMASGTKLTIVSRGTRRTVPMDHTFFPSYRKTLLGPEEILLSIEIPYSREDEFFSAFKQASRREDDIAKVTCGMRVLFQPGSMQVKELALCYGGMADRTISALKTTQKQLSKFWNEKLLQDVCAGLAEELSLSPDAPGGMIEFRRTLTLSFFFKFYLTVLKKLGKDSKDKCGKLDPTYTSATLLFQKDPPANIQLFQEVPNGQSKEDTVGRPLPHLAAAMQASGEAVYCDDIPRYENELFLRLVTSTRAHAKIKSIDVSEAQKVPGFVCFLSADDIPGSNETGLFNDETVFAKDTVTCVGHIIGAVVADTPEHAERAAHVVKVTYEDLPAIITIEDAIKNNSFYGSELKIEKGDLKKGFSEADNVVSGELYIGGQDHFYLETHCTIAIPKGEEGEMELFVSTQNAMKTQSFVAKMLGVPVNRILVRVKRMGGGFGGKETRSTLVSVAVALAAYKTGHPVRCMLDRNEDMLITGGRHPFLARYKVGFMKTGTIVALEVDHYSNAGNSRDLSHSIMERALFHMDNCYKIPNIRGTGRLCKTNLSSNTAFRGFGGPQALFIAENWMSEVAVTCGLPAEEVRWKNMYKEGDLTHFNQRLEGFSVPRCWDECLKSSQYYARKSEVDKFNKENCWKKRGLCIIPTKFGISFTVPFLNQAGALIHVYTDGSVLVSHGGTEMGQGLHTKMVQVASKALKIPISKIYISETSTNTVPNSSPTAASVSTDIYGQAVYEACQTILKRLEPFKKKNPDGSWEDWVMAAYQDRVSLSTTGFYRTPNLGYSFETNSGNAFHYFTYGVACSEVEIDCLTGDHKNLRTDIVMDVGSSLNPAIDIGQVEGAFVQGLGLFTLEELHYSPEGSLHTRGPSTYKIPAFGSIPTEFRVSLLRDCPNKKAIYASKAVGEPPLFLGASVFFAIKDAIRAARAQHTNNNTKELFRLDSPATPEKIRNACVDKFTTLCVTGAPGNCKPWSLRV

Structure (SMILES)	IC50 [1]	IC50 [2]	IC50 [3, 4]	IC50 ([3]; 15-lipoxygenase (15-LO) inhibition IC50 ± SD)	DPPH radical scavenging IC50 ± SD ([2]; extracts (Soxhlet) dissolved in DMSO)
C[C@@H]1O[C@@H](O[C@H]2C(=O)[C@@H](O)[C@H](C)O[C@@H]2c2c(O)cc3oc(-c4ccc(O)cc4)cc(=O)c3c2O)[C@H](O)[C@H](O)[C@H]1O [Cassiaoccidentalin A (1), cassiaoccidentalin A]	150 ± 7.4 µM	> 167 µM	99.9 ± 2.5 µM		
O=c1cc(-c2ccc(O)c(O)c2)oc2cc(O)c([C@@H]3O[C@H](CO)[C@@H](O)[C@H](O)[C@H]3O)c(O)c12 [Isoorientin (3), isoorientin]	117 ± 13.5 µM	18.1 ± 1.1 µM		86.4 ± 0.5 µM	
O=c1cc(-c2ccc(O)cc2)oc2cc(O)c([C@@H]3O[C@H](CO)[C@@H](O)[C@H](O)[C@H]3O)c(O)c12 [Isovitexin (2), isovitexin]	> 167 µM	96 ± 3.6 µM	107 ± 2.1 µM		
O=c1c(O)c(-c2ccc(O)c(O)c2)oc2cc(O)cc(O)c12 [Quercetin, reference compound]		13.7 ± 1.3 µM			4.4 ± 0.4 mg/L
